*1 amine or outer side, *2 acyl side, *3 side chain or, on linkers, in order; H or OH if unused. Where a SMILES comes first, the peptide text is derived from it. Side-chain parts run from the residue outwards. [ ]: non-standard residue; d: D form. The star is where a group is joined. X12 = CCCCCCCCCCCCCCCC(=O)N[C@@H](CCC(=O)N[C@@H](CCC(=O)N[C@@H](CCC(=O)NCCCC[C@H](NC(=O)COCC(=O)NCCCOCCOCCOCCCNC(=O)COCC(=O)NCCCOCCOCCOCCCN*)C(N)=O)C(=O)O)C(=O)O)C(=O)O; X13 = CCCCCCCCCCCCCCCC(=O)N[C@@H](CCC(=O)N[C@@H](CCC(=O)N[C@@H](CCC(=O)NCCCC[C@H](NC(=O)COCC(=O)NCCCOCCOCCOCCCN*)C(N)=O)C(=O)O)C(=O)O)C(=O)O; γGlu = O=C(O)[C@H](CCC(=O)[*:2])N[*:1]; Myristoyl = CCCCCCCCCCCCCC(=O)*; Nle = CCCC[C@H](N)C(=O)O; AEEA = NCCOCCOCC(=O)O; Aib = CC(C)(N)C(=O)O
Biological target: T1, RXFP1 (Homo sapiens, UniProt Q9HBX9)
T1 construct: OVCAR5 cells expressing endogenous RXFP1; endogenous in cells; host or cells: OVCAR5 cells
T1 sequence (Q9HBX9 1-757): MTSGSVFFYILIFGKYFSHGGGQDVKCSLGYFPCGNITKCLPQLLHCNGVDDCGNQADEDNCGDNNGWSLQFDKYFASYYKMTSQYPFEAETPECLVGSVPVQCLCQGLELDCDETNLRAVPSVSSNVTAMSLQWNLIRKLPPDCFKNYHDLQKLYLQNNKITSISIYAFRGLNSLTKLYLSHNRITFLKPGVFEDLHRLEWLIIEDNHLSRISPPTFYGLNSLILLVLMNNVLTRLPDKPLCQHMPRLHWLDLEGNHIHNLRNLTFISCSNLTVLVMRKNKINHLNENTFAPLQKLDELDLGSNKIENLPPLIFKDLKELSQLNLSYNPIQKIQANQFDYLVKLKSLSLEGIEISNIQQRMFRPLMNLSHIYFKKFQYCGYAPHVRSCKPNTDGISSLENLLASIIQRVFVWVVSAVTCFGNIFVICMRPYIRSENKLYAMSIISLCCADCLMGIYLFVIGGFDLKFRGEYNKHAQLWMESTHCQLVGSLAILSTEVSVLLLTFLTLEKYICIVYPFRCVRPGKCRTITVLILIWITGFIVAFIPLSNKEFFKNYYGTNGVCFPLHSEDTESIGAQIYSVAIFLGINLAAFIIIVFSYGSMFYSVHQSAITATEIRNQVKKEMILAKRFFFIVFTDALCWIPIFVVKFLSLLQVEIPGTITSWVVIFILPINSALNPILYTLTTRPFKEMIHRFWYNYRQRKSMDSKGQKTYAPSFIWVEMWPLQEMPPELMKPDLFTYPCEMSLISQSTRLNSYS
Assay: OVCAR5 cAMP assay (HTRF), RXFP1 agonist activity
Format: cell-based
Details: for Emax: OVCAR-5, maximal cAMP relative to H2-relaxin maximum (100%), read-out: EMax, OVCAR 5 cells (cAMP)
Procedure, shortened: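 OVCAR5 cells (endogenous RXFP1) pretreated 40 min at 37° C with 1 mM IBMX, then exposed to peptides in serum-free medium for 30 min at 37° C. Lysate cAMP read by HTRF; EC50 from variable-slope sigmoidal fit; Emax as % of H2-relaxin maximal cAMP in same run.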

CCCCCCCCCCCCCCCC(=O)N[C@@H](CCC(=O)N[C@@H](CCC(=O)N[C@@H](CCC(=O)NCCCC[C@H](NC(=O)COCC(=O)NCCCOCCOCCOCCCNC(=O)[C@H](CCCCNC(C)=O)NC(=O)[C@H](CCCCN)NC(=O)[C@H](CCCNC(=N)N)NC(=O)C(C)(C)NC(=O)[C@H](CO)NC(=O)[C@H](Cc1c[nH]c2ccccc12)NC(=O)[C@@H](NC(=O)[C@H](CO)NC(=O)[C@H](CCCC)NC(=O)CNC(=O)[C@H](CCC(=O)O)NC(=O)C(C)(C)NC(=O)C(C)(C)NC(=O)[C@@H](NC(=O)[C@H](CCCCNC(C)=O)NC(=O)[C@H](C)NC(=O)[C@H](CCCNC(=N)N)NC(=O)[C@@H](NC(=O)[C@H](CCCCN)NC(=O)[C@H](CCC(=O)O)NC(=O)[C@H](CCCNC(=N)N)NC(=O)CNC(=O)[C@H](CCC(=O)O)NC(=O)[C@H](CC(C)C)NC(C)=O)C(C)C)[C@@H](C)CC)[C@@H](C)O)C(N)=O)C(=O)O)C(=O)O)C(=O)O [compound 175] (Ac-LEGREKVRAK(Ac)I[Aib][Aib]EG[Nle]STWS[Aib]RKK(Ac)-X13)
Emax: 87%

CCCCCCCCCCCCCCCC(=O)N[C@@H](CCC(=O)N[C@@H](CCC(=O)N[C@@H](CCC(=O)NCCCC[C@H](NC(=O)COCC(=O)NCCCOCCOCCOCCCNC(=O)[C@H](CCCCNC(C)=O)NC(=O)[C@H](CCCCN)NC(=O)[C@H](CCCNC(=N)N)NC(=O)C(C)(C)NC(=O)[C@H](CO)NC(=O)[C@H](Cc1c[nH]c2ccccc12)NC(=O)[C@@H](NC(=O)[C@H](CO)NC(=O)[C@H](CCC(N)=O)NC(=O)CNC(=O)[C@H](CCC(=O)O)NC(=O)C(C)(C)NC(=O)C(C)(C)NC(=O)[C@@H](NC(=O)[C@H](CCCCNC(C)=O)NC(=O)[C@H](C)NC(=O)[C@H](CCCNC(=N)N)NC(=O)[C@@H](NC(=O)[C@H](CCCCN)NC(=O)[C@H](CCC(=O)O)NC(=O)[C@H](CCCNC(=N)N)NC(=O)CNC(=O)[C@H](CCC(=O)O)NC(=O)[C@H](CC(C)C)NC(C)=O)C(C)C)[C@@H](C)CC)[C@@H](C)O)C(N)=O)C(=O)O)C(=O)O)C(=O)O [compound 176] (Ac-LEGREKVRAK(Ac)I[Aib][Aib]EGQSTWS[Aib]RKK(Ac)-X13)
Emax: 90%

CCCCCCCCCCCCCCCC(=O)N[C@@H](CCC(=O)N[C@@H](CCC(=O)N[C@@H](CCC(=O)NCCCC[C@H](NC(=O)COCC(=O)NCCCOCCOCCOCCCNC(=O)COCC(=O)NCCCOCCOCCOCCCNC(=O)[C@H](CCCCNC(C)=O)NC(=O)[C@H](CCCCN)NC(=O)[C@H](CCCNC(=N)N)NC(=O)C(C)(C)NC(=O)[C@H](CO)NC(=O)[C@H](Cc1c[nH]c2ccccc12)NC(=O)[C@@H](NC(=O)[C@H](CO)NC(=O)[C@H](CCC(N)=O)NC(=O)CNC(=O)[C@H](CCC(=O)O)NC(=O)C(C)(C)NC(=O)C(C)(C)NC(=O)[C@@H](NC(=O)[C@H](CCC(N)=O)NC(=O)[C@H](C)NC(=O)[C@H](CCCNC(=N)N)NC(=O)[C@@H](NC(=O)[C@H](CCCCN)NC(=O)[C@H](CCC(=O)O)NC(=O)[C@H](CCCNC(=N)N)NC(=O)CNC(=O)[C@H](CCC(=O)O)NC(=O)[C@H](CC(C)C)NC(C)=O)C(C)C)[C@@H](C)CC)[C@@H](C)O)C(N)=O)C(=O)O)C(=O)O)C(=O)O [compound 177] (Ac-LEGREKVRAQI[Aib][Aib]EGQSTWS[Aib]RKK(Ac)-X12)
Emax: 91%

CCCCCCCCCCCCCC(=O)N[C@@H](CCC(=O)N[C@@H](CCC(=O)N[C@@H](CCC(=O)NCCOCCOCC(=O)NCCOCCOCC(=O)NCCOCCOCC(=O)NCCCC[C@H](NC(=O)[C@H](CCCCNC(C)=O)NC(=O)[C@H](CCCCN)NC(=O)[C@H](CCCNC(=N)N)NC(=O)C(C)(C)NC(=O)[C@H](CO)NC(=O)[C@H](Cc1c[nH]c2ccccc12)NC(=O)[C@@H](NC(=O)[C@H](CO)NC(=O)[C@H](CCCC)NC(=O)CNC(=O)[C@H](CCC(=O)O)NC(=O)C(C)(C)NC(=O)C(C)(C)NC(=O)[C@@H](NC(=O)[C@H](CCCCNC(C)=O)NC(=O)[C@H](C)NC(=O)[C@H](CCCNC(=N)N)NC(=O)[C@@H](NC(=O)[C@H](CCCCN)NC(=O)[C@H](CCC(=O)O)NC(=O)[C@H](CCCNC(=N)N)NC(=O)CNC(=O)[C@H](CCC(=O)O)NC(=O)[C@H](CC(C)C)NC(C)=O)C(C)C)[C@@H](C)CC)[C@@H](C)O)C(N)=O)C(=O)O)C(=O)O)C(=O)O [compound 178] (Ac-LEGREKVRAK(Ac)I[Aib][Aib]EG[Nle]STWS[Aib]RKK(Ac)K([AEEA-AEEA-AEEA-γGlu-γGlu-γGlu-Myristoyl])-NH2)
EC50 (OVCAR5 cells, cAMP HTRF, read-out: EC50 (nM), OVCAR 5 cells (cAMP)): 17.6 nM | Emax: 93%
